Results published in the supplement of paper PMC11451515.

Key:
Settings in all cases: 48 h
SEM cells [1] = test: AUC of viability dose-response curve (% viability x log10 dose units); higher = less sensitive
In short: (§1)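 Leukemia cells adapted to each medium were seeded in 1536-well plates (500 or 1000 cells/well) and given library compounds in DMSO for 48 h at 37°C. The 11 threefold doses spanned 47 μM to 0.79 nM, and CellTiter-Glo One luminescence was normalised per plate to DMSO and cell-free wells before four-parameter log-logistic fitting on log10 dose. Area under the curve was integrated with the trapezoidal rule, scaling curves above full viability and removing curves that failed quality control.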

NOMO1 [2] = test: as above
In short: as §1

P12-Ichikawa [3] = test: as above
In short: as §1

SEM cells [4] = test: cell viability relative to DMSO control; higher = less cytotoxic
In short: (§2)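 Leukemia cells (NOMO1 or SEM, 500 cells/well; P12-Ichikawa, 1000 cells/well) were seeded in 5 μl in 1536-well plates after at least four passages of adaptation to each medium. They received library compounds in DMSO by pin dosing, 11 threefold points from 47 μM to 0.79 nM. Luminescence with CellTiter-Glo One was read after 48 h at 37°C. Viability is stated per plate relative to DMSO wells, with cell-free wells as background.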

NOMO1 [5] = test: as above
In short: as §2

P12-Ichikawa [6] = test: as above
In short: as §2

[7] = RPMI 5 mM glucose + 10% dialyzed FBS
[8] = HPLM + 10% dialyzed FBS, 0.000781 µM
[9] = HPLM + 10% dialyzed FBS, 0.00234 µM
[10] = HPLM + 10% dialyzed FBS, 0.00702 µM
[11] = HPLM + 10% dialyzed FBS, 0.0211 µM
[12] = HPLM + 10% dialyzed FBS, 0.0632 µM
[13] = HPLM + 10% dialyzed FBS, 0.19 µM
[14] = HPLM + 10% dialyzed FBS, 0.569 µM
[15] = HPLM + 10% dialyzed FBS, 1.71 µM
[16] = HPLM + 10% dialyzed FBS, 5.12 µM
[17] = HPLM + 10% dialyzed FBS, 15.4 µM
[18] = HPLM + 10% dialyzed FBS, 46.1 µM
[19] = RPMI 5 mM glucose + 10% FBS, 0.000781 µM
[20] = RPMI 5 mM glucose + 10% FBS, 0.00234 µM
[21] = RPMI 5 mM glucose + 10% FBS, 0.00702 µM
[22] = RPMI 5 mM glucose + 10% FBS, 0.0211 µM
[23] = RPMI 5 mM glucose + 10% FBS, 0.0632 µM
[24] = RPMI 5 mM glucose + 10% FBS, 0.19 µM
[25] = RPMI 5 mM glucose + 10% FBS, 0.569 µM
[26] = RPMI 5 mM glucose + 10% FBS, 1.71 µM
[27] = RPMI 5 mM glucose + 10% FBS, 5.12 µM
[28] = RPMI 5 mM glucose + 10% FBS, 15.4 µM
[29] = RPMI 5 mM glucose + 10% FBS, 46.1 µM
[30] = RPMI 5 mM glucose + 10% dialyzed FBS, 0.000781 µM
[31] = RPMI 5 mM glucose + 10% dialyzed FBS, 0.00234 µM
[32] = RPMI 5 mM glucose + 10% dialyzed FBS, 0.00702 µM
[33] = RPMI 5 mM glucose + 10% dialyzed FBS, 0.0211 µM
[34] = RPMI 5 mM glucose + 10% dialyzed FBS, 0.0632 µM
[35] = RPMI 5 mM glucose + 10% dialyzed FBS, 0.19 µM
[36] = RPMI 5 mM glucose + 10% dialyzed FBS, 0.569 µM
[37] = RPMI 5 mM glucose + 10% dialyzed FBS, 1.71 µM
[38] = RPMI 5 mM glucose + 10% dialyzed FBS, 5.12 µM
[39] = RPMI 5 mM glucose + 10% dialyzed FBS, 15.4 µM
[40] = RPMI 5 mM glucose + 10% dialyzed FBS, 46.1 µM

Structure (SMILES): OCCn1cc(-c2ccc3c(c2)CC/C3=N\O)c(-c2ccncc2)n1
- AUC of viability dose-response curve (SEM cells [1]; HPLM + 10% dialyzed FBS): 462
- AUC of viability dose-response curve (SEM cells [1]; RPMI 5 mM glucose + 10% FBS): 465
- AUC of viability dose-response curve (SEM cells [1]; [7]): 472
- AUC of viability dose-response curve (NOMO1 [2]; HPLM + 10% dialyzed FBS): 464
- AUC of viability dose-response curve (NOMO1 [2]; RPMI 5 mM glucose + 10% FBS): 468
- AUC of viability dose-response curve (NOMO1 [2]; [7]): 472
- AUC of viability dose-response curve (P12-Ichikawa [3]; HPLM + 10% dialyzed FBS): 444
- AUC of viability dose-response curve (P12-Ichikawa [3]; RPMI 5 mM glucose + 10% FBS): 450
- AUC of viability dose-response curve (P12-Ichikawa [3]; [7]): 440

Structure (SMILES): CC1=CC=C(C=C1)N(C\C2=N\CCN2)C3=CC=CC(=C3)O
- cell viability (SEM cells [4]; [8]): 118%
- cell viability (SEM cells [4]; [9]): 114%
- cell viability (SEM cells [4]; [10]): 122%
- cell viability (SEM cells [4]; [11]): 120%
- cell viability (SEM cells [4]; [12]): 117%
- cell viability (SEM cells [4]; [13]): 126%
- cell viability (SEM cells [4]; [14]): 132%
- cell viability (SEM cells [4]; [15]): 131%
- cell viability (SEM cells [4]; [16]): 131%
- cell viability (SEM cells [4]; [17]): 131%
- cell viability (SEM cells [4]; [18]): 68.4%
- AUC of viability dose-response curve (SEM cells [1]; HPLM + 10% dialyzed FBS): 454
- AUC of viability dose-response curve (SEM cells [1]; RPMI 5 mM glucose + 10% FBS): 464
- AUC of viability dose-response curve (SEM cells [1]; [7]): 468
- AUC of viability dose-response curve (NOMO1 [2]; HPLM + 10% dialyzed FBS): 352
- AUC of viability dose-response curve (NOMO1 [2]; RPMI 5 mM glucose + 10% FBS): 403
- AUC of viability dose-response curve (NOMO1 [2]; [7]): 407
- AUC of viability dose-response curve (P12-Ichikawa [3]; HPLM + 10% dialyzed FBS): 473
- AUC of viability dose-response curve (P12-Ichikawa [3]; RPMI 5 mM glucose + 10% FBS): 452
- AUC of viability dose-response curve (P12-Ichikawa [3]; [7]): 459

Structure (SMILES): COCCCOc1ccnc(C[S+]([O-])c2nc3ccccc3[nH]2)c1C (centres undefined)
- cell viability (SEM cells [4]; [8]): 97%
- cell viability (SEM cells [4]; [9]): 102%
- cell viability (SEM cells [4]; [10]): 110%
- cell viability (SEM cells [4]; [11]): 115%
- cell viability (SEM cells [4]; [12]): 107%
- cell viability (SEM cells [4]; [13]): 113%
- cell viability (SEM cells [4]; [14]): 127%
- cell viability (SEM cells [4]; [15]): 109%
- cell viability (SEM cells [4]; [16]): 102%
- cell viability (SEM cells [4]; [17]): 109%
- cell viability (SEM cells [4]; [18]): 94.3%
- cell viability (SEM cells [4]; [19]): 72.3%
- cell viability (SEM cells [4]; [20]): 72.1%
- cell viability (SEM cells [4]; [21]): 71.3%
- cell viability (SEM cells [4]; [22]): 82.6%
- cell viability (SEM cells [4]; [23]): 73.1%
- cell viability (SEM cells [4]; [24]): 79%
- cell viability (SEM cells [4]; [25]): 78.6%
- cell viability (SEM cells [4]; [26]): 76.7%
- cell viability (SEM cells [4]; [27]): 65.6%
- cell viability (SEM cells [4]; [28]): 81.3%
- cell viability (SEM cells [4]; [29]): 75.2%
- cell viability (SEM cells [4]; [30]): 97.9%
- cell viability (SEM cells [4]; [31]): 110%
- cell viability (SEM cells [4]; [32]): 91.3%
- cell viability (SEM cells [4]; [33]): 107%
- cell viability (SEM cells [4]; [34]): 98.8%
- cell viability (SEM cells [4]; [35]): 103%
- cell viability (SEM cells [4]; [36]): 109%
- cell viability (SEM cells [4]; [37]): 100%
- cell viability (SEM cells [4]; [38]): 115%
- cell viability (SEM cells [4]; [39]): 108%
- cell viability (SEM cells [4]; [40]): 108%
- cell viability (NOMO1 [5]; [8]): 92.5%
- cell viability (NOMO1 [5]; [9]): 116%
- cell viability (NOMO1 [5]; [10]): 113%
- cell viability (NOMO1 [5]; [11]): 123%
- cell viability (NOMO1 [5]; [12]): 123%
- cell viability (NOMO1 [5]; [13]): 122%
- cell viability (NOMO1 [5]; [14]): 116%
- cell viability (NOMO1 [5]; [15]): 127%
- cell viability (NOMO1 [5]; [16]): 130%
- cell viability (NOMO1 [5]; [17]): 119%
- cell viability (NOMO1 [5]; [18]): 117%
- cell viability (NOMO1 [5]; [19]): 126%
- cell viability (NOMO1 [5]; [20]): 118%
- cell viability (NOMO1 [5]; [21]): 110%
- cell viability (NOMO1 [5]; [22]): 109%
- cell viability (NOMO1 [5]; [23]): 131%
- cell viability (NOMO1 [5]; [24]): 124%
- cell viability (NOMO1 [5]; [25]): 105%
- cell viability (NOMO1 [5]; [26]): 126%
- cell viability (NOMO1 [5]; [27]): 115%
- cell viability (NOMO1 [5]; [28]): 118%
- cell viability (NOMO1 [5]; [29]): 124%
- cell viability (NOMO1 [5]; [30]): 108%
- cell viability (NOMO1 [5]; [31]): 114%
- cell viability (NOMO1 [5]; [32]): 119%
- cell viability (NOMO1 [5]; [33]): 120%
- cell viability (NOMO1 [5]; [34]): 133%
- cell viability (NOMO1 [5]; [35]): 119%
- cell viability (NOMO1 [5]; [36]): 119%
- cell viability (NOMO1 [5]; [37]): 121%
- cell viability (NOMO1 [5]; [38]): 120%
- cell viability (NOMO1 [5]; [39]): 115%
- cell viability (NOMO1 [5]; [40]): 129%
- cell viability (P12-Ichikawa [6]; [8]): 107%
- cell viability (P12-Ichikawa [6]; [9]): 116%
- cell viability (P12-Ichikawa [6]; [10]): 109%
- cell viability (P12-Ichikawa [6]; [11]): 105%
- cell viability (P12-Ichikawa [6]; [12]): 121%
- cell viability (P12-Ichikawa [6]; [13]): 113%
- cell viability (P12-Ichikawa [6]; [14]): 123%
- cell viability (P12-Ichikawa [6]; [15]): 119%
- cell viability (P12-Ichikawa [6]; [16]): 125%
- cell viability (P12-Ichikawa [6]; [17]): 113%
- cell viability (P12-Ichikawa [6]; [18]): 117%
- cell viability (P12-Ichikawa [6]; [19]): 114%
- cell viability (P12-Ichikawa [6]; [20]): 109%
- cell viability (P12-Ichikawa [6]; [21]): 117%
- cell viability (P12-Ichikawa [6]; [22]): 106%
- cell viability (P12-Ichikawa [6]; [23]): 112%
- cell viability (P12-Ichikawa [6]; [24]): 125%
- cell viability (P12-Ichikawa [6]; [25]): 135%
- cell viability (P12-Ichikawa [6]; [26]): 130%
- cell viability (P12-Ichikawa [6]; [27]): 120%
- cell viability (P12-Ichikawa [6]; [28]): 131%
- cell viability (P12-Ichikawa [6]; [29]): 119%
- cell viability (P12-Ichikawa [6]; [30]): 105%
- cell viability (P12-Ichikawa [6]; [31]): 105%
- cell viability (P12-Ichikawa [6]; [32]): 114%
- cell viability (P12-Ichikawa [6]; [33]): 105%
- cell viability (P12-Ichikawa [6]; [34]): 134%
- cell viability (P12-Ichikawa [6]; [35]): 132%
- cell viability (P12-Ichikawa [6]; [36]): 131%
- cell viability (P12-Ichikawa [6]; [37]): 113%
- cell viability (P12-Ichikawa [6]; [38]): 115%
- cell viability (P12-Ichikawa [6]; [39]): 123%
- cell viability (P12-Ichikawa [6]; [40]): 121%
- AUC of viability dose-response curve (NOMO1 [2]; HPLM + 10% dialyzed FBS): 467
- AUC of viability dose-response curve (NOMO1 [2]; RPMI 5 mM glucose + 10% FBS): 475
- AUC of viability dose-response curve (NOMO1 [2]; [7]): 460
- AUC of viability dose-response curve (P12-Ichikawa [3]; HPLM + 10% dialyzed FBS): 464
- AUC of viability dose-response curve (P12-Ichikawa [3]; RPMI 5 mM glucose + 10% FBS): 450
- AUC of viability dose-response curve (P12-Ichikawa [3]; [7]): 449
